Read-outs that look alike come from different tables or passages of the source.
Experiments:
RORγt [1] = target: T1, RORγt (Homo sapiens, UniProt P51449); assay: RORγt binding test using fluorescent-labeled cholesterol (TR-FRET); conditions: read-out: Binding inhibitory rate of fluorescent-labeled cholesterol to RORγt at test compound 1 μM (%)
T1 sequence (P51449 1-497 isoform P51449-2): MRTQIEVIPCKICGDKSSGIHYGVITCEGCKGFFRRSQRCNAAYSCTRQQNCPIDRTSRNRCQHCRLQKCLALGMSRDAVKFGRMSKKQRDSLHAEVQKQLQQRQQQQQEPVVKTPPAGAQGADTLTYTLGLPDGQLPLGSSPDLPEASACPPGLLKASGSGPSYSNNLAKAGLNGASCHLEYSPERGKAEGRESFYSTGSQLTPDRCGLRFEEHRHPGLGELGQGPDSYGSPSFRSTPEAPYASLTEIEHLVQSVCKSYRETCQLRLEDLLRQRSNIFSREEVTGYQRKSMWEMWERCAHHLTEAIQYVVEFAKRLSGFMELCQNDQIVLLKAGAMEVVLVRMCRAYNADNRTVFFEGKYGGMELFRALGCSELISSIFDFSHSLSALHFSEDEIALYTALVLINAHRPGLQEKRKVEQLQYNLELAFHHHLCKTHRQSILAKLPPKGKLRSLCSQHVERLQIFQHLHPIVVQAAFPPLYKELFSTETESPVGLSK
Protocol: RORγt Binding Test Using Fluorescent-labeled Cholesterol
The binding activity of the test compound to RORγt was measured by a time resolved fluorescence resonance energy transfer method (TR-FRET) utilizing histidine-tagged RORγt, fluorescent-labeled cholesterol (BODIPY-cholesterol, AVIVA), and terbium-labeled anti-histidine tag antibody (Invitrogen). First, a test compound diluted with an assay buffer (20 mM Tris-HCl (pH 7.5), 100 mM NaCl, 1 mM DTT, 0.1% BSA) was added to a 384 well plate by 3 μL. Then, RORγt diluted with an assay buffer to 240 nM was added by 3 μL, after which fluorescent-labeled cholesterol diluted with the assay buffer to 12 μM was added by 3 μL, and the mixture was stood at room temperature for 20 min. Thereafter, a terbium-labeled anti-histidine tag antibody diluted with the assay buffer to 8 nM was added by 3 μL. The mixture was stood at room temperature for 20 min, and fluorescence intensity (excitation wavelength 320 nm, fluorescence wavelength 520 nm, delay time 100 microseconds) was measured by Envision (PerkinElmer).

RORγt [2] = target: T1, RORγt; assay: Jurkat reporter test (human IL-17 ROR response element luciferase, RORγt vector); type: cell-based; conditions: read-out: Luminescence level inhibitory rate at test compound 3 μM (%)
Protocol: The Jurkat cells used for the reporter test were cultured in a culture medium (RPMI (Invitrogen), 10% FCS (AusGeneX), 100 U/mL penicillin, 100 μg/mL streptomycin). On the day of the test, 4×10^7 cells were recovered by a centrifugal operation (1000 rpm, 5 min.) and suspended in PBS (phosphate buffered saline) (Invitrogen). Thereafter, the cells were recovered again by a centrifugal operation, and suspended in 2 mL of R buffer (NEON transfection kit, Invitrogen). […] Gene transfer was performed by Electroporation apparatus (NEON, Invitrogen) under the conditions of pulse voltage 1350 V, interval 10 milliseconds, number of times 3. The cells after gene transfer were suspended in 40 mL of a reaction medium (RPMI, 10% Lipid reduced FCS (HyClone), 10 mM HEPES (pH 7.5), 100 U/mL penicillin, 100 μg/mL streptomycin, 5 μM lovastatin), and plated in a 96 well plate by 90 μL. A test compound diluted with the reaction medium was added by 10 μL, and the cells were cultured overnight in an incubator. Bright-Glo (Promega) was added by 100 μL, and the mixture was stirred at room temperature for 10 min, and the luminescence level was measured by Envision (PerkinElmer).

RORγt [3] = target: T1, RORγt; assay: Cofactor recruitment test (Alpha Screen, biotinylated SRC-1 peptide); type: biochemical; conditions: read-out: Signal value inhibitory rate at test compound 1 μM (%)
Protocol: Cofactor Recruitment Test
Cofactor recruitment test was performed by Alpha Screen (Histidine Detection Kit, PerkinElmer) method. First, a test compound was diluted with an assay buffer (50 mM Tris-HCl (pH 7.5), 50 mM KCl, 1 mM DTT, 0.1% BSA) and added to a 384 well plate by 5 μL. […] The mixture was stood in a dark place for 1 hr, and the signal value was measured by Envision (PerkinElmer).

[4] = test compound 3 μM, Jurkat cells

## COc1ccc2c(c1)CCN(C(=O)c1cc(O)no1)C2C(=O)Nc1ccc([Si](C)(C)C)c(F)c1 (stereo not drawn) [Example 3, N-(3-fluoro-4-(trimethylsilyl)phenyl)-2-((3-hydroxy-1,2-oxazol-5-yl)carbonyl)-6-methoxy-1,2,3,4-tetrahydroisoquinoline-1-carboxamide]
RORγt [1]
  inhibition at 1 µM: 101%
RORγt [2]; Jurkat
  inhibition at 3 µM: 99.6%
RORγt [3]
  inhibition at 1 µM: 92.7%

## COc1ccc2c(c1)CCN(C(=O)Cc1cc(O)no1)[C@H]2C(=O)Nc1cc(F)c([Si](C)(C)C)c(F)c1 [Example 85, (1R)-N-(3,5-difluoro-4-(trimethylsilyl)phenyl)-2-((3-hydroxy-1,2-oxazol-5-yl)acetyl)-6-methoxy-1,2,3,4-tetrahydroisoquinoline-1-carboxamide]
RORγt [1]
  inhibition at 1 µM: 103%
RORγt [2]; Jurkat
  inhibition at 3 µM: 101%
RORγt [3]
  inhibition at 1 µM: 99%

## COc1ccc2c(c1)CCN(C(=O)CCCC(=O)O)[C@H]2C(=O)Nc1cc(F)c(C(C)(C)COCC2CC2)c(F)c1 [Example 161, 5-((1R)-1-((4-(1-(cyclopropylmethoxy)-2-methylpropan-2-yl)-3,5-difluorophenyl)carbamoyl)-6-methoxy-3,4-dihydroisoquinolin-2 (1H)-yl)-5-oxopentanoic acid]
RORγt [1]
  inhibition at 1 µM: 100%
RORγt [2]; [4]
  inhibition at 3 µM: 90%
RORγt [3]
  inhibition at 1 µM: 76%

## COc1ccc2c(c1)CCN(C(=O)Cc1ccc(OC)nc1)[C@H]2C(=O)Nc1ccc(C(C)(C)C)c(F)c1 [Example 32, (1R)-N-(4-tert-butyl-3-fluorophenyl)-6-methoxy-2-((6-methoxypyridin-3-yl)acetyl)-1,2,3,4-tetrahydroisoquinoline-1-carboxamide]
RORγt [1]
  inhibition at 1 µM: 101%
RORγt [2]; [4]
  inhibition at 3 µM: 103%
RORγt [3]
  inhibition at 1 µM: 89.9%

## COc1ccc2c(c1)CCN(C(=O)c1cc(O)no1)C2C(=O)Nc1ccc(C(C)(C)C)c(Cl)c1 (stereo not drawn) [Example 10, N-(4-tert-butyl-3-chlorophenyl)-2-((3-hydroxy-1,2-oxazol-5-yl)carbonyl)-6-methoxy-1,2,3,4-tetrahydroisoquinoline-1-carboxamide]
RORγt [1]
  inhibition at 1 µM: 98.9%
RORγt [2]; [4]
  inhibition at 3 µM: 98.8%
RORγt [3]
  inhibition at 1 µM: 43.8%

## CCOc1ccc2c(c1)CCN(C(=O)Cc1cc(O)no1)[C@H]2C(=O)Nc1cc(F)c(C(C)(C)COC)c(F)c1 [Example 165, (1R)-N-(3,5-difluoro-4-(1-methoxy-2-methylpropan-2-yl)phenyl)-6-ethoxy-2-((3-hydroxy-1,2-oxazol-5-yl)acetyl)-1,2,3,4-tetrahydroisoquinoline-1-carboxamide]
RORγt [1]
  inhibition at 1 µM: 101%
RORγt [2]; [4]
  inhibition at 3 µM: 101%
RORγt [3]
  inhibition at 1 µM: 96%

## COc1ccc2c(c1)CCN(C(=O)CCO)[C@H]2C(=O)Nc1ccc(C(C)(C)C)c(F)c1 [Example 30, (1R)-N-(4-tert-butyl-3-fluorophenyl)-2-(3-hydroxypropanoyl)-6-methoxy-1,2,3,4-tetrahydroisoquinoline-1-carboxamide]
RORγt [1]
  inhibition at 1 µM: 102%
RORγt [2]; [4]
  inhibition at 3 µM: 99.8%
RORγt [3]
  inhibition at 1 µM: 82%

## COc1ccc2c(c1)CCN(C(=O)c1ccc(=O)[nH]c1)C2C(=O)Nc1ccc([Si](C)(C)C)c(F)c1 (stereo not drawn) [Example 4, N-(3-fluoro-4-(trimethylsilyl)phenyl)-6-methoxy-2-((6-oxo-1,6-dihydropyridin-3-yl)carbonyl)-1,2,3,4-tetrahydroisoquinoline-1-carboxamide]
RORγt [1]
  inhibition at 1 µM: 101%
RORγt [2]; Jurkat
  inhibition at 3 µM: 99.7%
RORγt [3]
  inhibition at 1 µM: 81.9%

## CCOC(=O)C(C)(C)c1ccc(NC(=O)C2c3ccc(OC)cc3CCN2C(=O)c2cc(O)no2)cc1F (stereo not drawn) [Example 37, ethyl 2-(2-fluoro-4-(((2-((3-hydroxy-1,2-oxazol-5-yl)carbonyl)-6-methoxy-1,2,3,4-tetrahydroisoquinolin-1-yl)carbonyl)amino)phenyl)-2-methylpropanoate]
RORγt [1]
  inhibition at 1 µM: 103%
RORγt [2]; [4]
  inhibition at 3 µM: 98.6%
RORγt [3]
  inhibition at 1 µM: 98.3%

## COc1ccc2c(n1)CCN(C(=O)c1cc(O)no1)[C@H]2C(=O)Nc1cc(F)c([Si](C)(C)C)c(F)c1 [Example 122, (5R)-N-(3,5-difluoro-4-(trimethylsilyl)phenyl)-6-((3-hydroxy-1,2-oxazol-5-yl)carbonyl)-2-methoxy-5,6,7,8-tetrahydro-1,6-naphthyridine-5-carboxamide]
RORγt [1]
  inhibition at 1 µM: 102%
RORγt [2]; Jurkat
  inhibition at 3 µM: 103%
RORγt [3]
  inhibition at 1 µM: 99%

## CCOc1ccc2c(c1)CCN(C(=O)Cc1cc(O)no1)C2C(=O)Nc1ccc(C(C)(C)C)c(F)c1 (stereo not drawn) [Example 54, N-(4-tert-butyl-3-fluorophenyl)-6-ethoxy-2-((3-hydroxy-1,2-oxazol-5-yl)acetyl)-1,2,3,4-tetrahydroisoquinoline-1-carboxamide]
RORγt [1]
  inhibition at 1 µM: 100%
RORγt [2]; [4]
  inhibition at 3 µM: 101%
RORγt [3]
  inhibition at 1 µM: 81.9%

## COc1ccc2c(c1)CCN(C(=O)c1cc(O)no1)C2C(=O)Nc1cc(F)c2c(c1)CCC2(C)C (stereo not drawn) [Example 11, N-(7-fluoro-1,1-dimethyl-2,3-dihydro-1H-inden-5-yl)-2-((3-hydroxy-1,2-oxazol-5-yl)carbonyl)-6-methoxy-1,2,3,4-tetrahydroisoquinoline-1-carboxamide]
RORγt [1]
  inhibition at 1 µM: 103%
RORγt [2]; [4]
  inhibition at 3 µM: 99.7%
RORγt [3]
  inhibition at 1 µM: 67.7%

## CC[Si](C)(C)c1c(F)cc(NC(=O)[C@H]2c3ccc(COC)nc3CCN2C(=O)c2cc(O)no2)cc1F [Example 174, (5R)-N-(4-(ethyl (dimethyl)silyl)-3,5-difluorophenyl)-6-((3-hydroxy-1,2-oxazol-5-yl)carbonyl)-2-(methoxymethyl)-5,6,7,8-tetrahydro-1,6-naphthyridine-5-carboxamide]
RORγt [1]
  inhibition at 1 µM: 101%
RORγt [2]; Jurkat
  inhibition at 3 µM: 98%
RORγt [3]
  inhibition at 1 µM: 88%

## CC[Si](C)(C)c1c(F)cc(NC(=O)[C@H]2c3ccc(OC)nc3CCN2C(=O)Cc2cc(O)no2)cc1F [Example 113, (5R)-N-(4-(ethyl (dimethyl)silyl)-3,5-difluorophenyl)-6-((3-hydroxy-1,2-oxazol-5-yl)acetyl)-2-methoxy-5,6,7,8-tetrahydro-1,6-naphthyridine-5-carboxamide]
RORγt [1]
  inhibition at 1 µM: 104%
RORγt [2]; Jurkat
  inhibition at 3 µM: 101%
RORγt [3]
  inhibition at 1 µM: 99%

## COc1ccc2c(c1)CCN(C(=O)c1cc(O)no1)C2C(=O)Nc1ccc(C(C)(C)C)c(F)c1 (stereo not drawn) [Example 9, N-(4-tert-butyl-3-fluorophenyl)-2-((3-hydroxy-1,2-oxazol-5-yl)carbonyl)-6-methoxy-1,2,3,4-tetrahydroisoquinoline-1-carboxamide]
RORγt [1]
  inhibition at 1 µM: 100%
RORγt [2]; [4]
  inhibition at 3 µM: 101%
RORγt [3]
  inhibition at 1 µM: 77.3%

## COc1ccc2c(c1)CCN(C(=O)c1ccc(=O)[nH]c1)[C@H]2C(=O)Nc1ccc([Si](C)(C)C)c(F)c1 [Example 8, (1R)-N-(3-fluoro-4-(trimethylsilyl)phenyl)-6-methoxy-2-((6-oxo-1,6-dihydropyridin-3-yl)carbonyl)-1,2,3,4-tetrahydroisoquinoline-1-carboxamide]
RORγt [1]
  inhibition at 1 µM: 102%
RORγt [2]; Jurkat
  inhibition at 3 µM: 101%
RORγt [3]
  inhibition at 1 µM: 81.2%

## COc1ccc2c(c1)CCN(C(=O)c1cc(O)no1)C2C(=O)Nc1cc(F)c(C(C)(C)C)c(F)c1 (stereo not drawn) [Example 12, N-(4-tert-butyl-3,5-difluorophenyl)-2-((3-hydroxy-1,2-oxazol-5-yl)carbonyl)-6-methoxy-1,2,3,4-tetrahydroisoquinoline-1-carboxamide]
RORγt [1]
  inhibition at 1 µM: 103%
RORγt [2]; [4]
  inhibition at 3 µM: 99.3%
RORγt [3]
  inhibition at 1 µM: 82.4%

— patent US10053468B2, “Heterocyclic compound” (TAKEDA PHARMACEUTICAL COMPANY LIMITED, priority 2013, dated 2018)
